The nature of assay [1]: DPPH free radical scavenging assay. As for the experimental part:
The free radical scavenging abilities of the extracts were determined using 2,2- Diphenyl-1-picrylhydrazyl (DPPH) assay modified by Brand-Williams et al. with some modification. In oxidized form of DPPH have deep violet color. On getting electrons from antioxidants the deep violet color changes to yellow color. DPPH solution was prepared by dissolving 20 mg in 100 ml methanol (stock solution). From this solution 3 ml were taken and its absorbance was adjusted to 0.75 at 515 nm (control solution). For the formation of free radical, the stock DPPH solution was covered with aluminum foil and kept in dark place for 24 h. For the preparation of stock solutions, 5 mg of each extracts were dissolved in 5 ml of methanol (5000 μg/5 ml). Different dilution (1000, 500, 250, 125 and 62.5 μg/ml) were prepared from stock solutions through serial dilution. About 2 ml from each dilution were mixed with 2 ml of DPPH solution and incubated for 15 min in darkness. The percentage inhibition of DPPH free radical by extracts was calculated using the following formula: 1 %inhibition=A−B/AX100
Where A is the absorbance of DPPH in oxidized state and B is the absorbance of mixture after 15 min of reaction. Ascorbic acid was used as standard antioxidant.

A short description of assay [2]: ABTS free radical scavenging assay.
Procedure: These two solutions were mixed thoroughly and kept in dark overnight for the formation of free radical. About 3 ml were taken from this stock solution and its absorbance was adjusted to 0.76 at 745 nm (control solution). About 300 μl of test samples were mixed with 3 ml of ABTS solution and incubated for 15 min at 25 °C. The absorbance of the mixture was measured using a double beam spectrophotometer at 745 nm. The same procedure was followed for the preparation of different dilution of ascorbic acid (positive control). The data was recorded in triplicate and percent ABTS free radicals scavenging activities were calculated using Eq. 1.
The target in assay [3] is T1, butyryl cholinesterase from equine (Equus caballus, UniProt P81908).
T1 construct: purchased Sigma-Aldrich USA
T1 sequence (P81908 whole entry): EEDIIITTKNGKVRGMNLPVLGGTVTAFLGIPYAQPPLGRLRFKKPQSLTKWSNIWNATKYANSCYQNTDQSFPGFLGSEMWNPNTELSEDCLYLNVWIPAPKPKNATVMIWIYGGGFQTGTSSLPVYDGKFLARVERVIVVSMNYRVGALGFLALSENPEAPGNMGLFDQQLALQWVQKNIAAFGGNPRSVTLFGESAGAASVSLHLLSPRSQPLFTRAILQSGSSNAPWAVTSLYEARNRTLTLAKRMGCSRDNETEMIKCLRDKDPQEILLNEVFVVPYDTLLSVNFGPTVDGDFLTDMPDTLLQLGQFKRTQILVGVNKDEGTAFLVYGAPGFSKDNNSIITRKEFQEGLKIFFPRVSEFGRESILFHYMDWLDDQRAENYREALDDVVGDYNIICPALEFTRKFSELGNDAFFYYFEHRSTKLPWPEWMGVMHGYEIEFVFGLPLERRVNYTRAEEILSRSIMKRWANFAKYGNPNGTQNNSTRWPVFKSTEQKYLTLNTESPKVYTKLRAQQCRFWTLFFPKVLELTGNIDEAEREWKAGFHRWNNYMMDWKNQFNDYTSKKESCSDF
Kind of assay: Butyrylcholinesterase inhibition (Ellman's assay). The assay is classed as biochemical. To be noted: for inhibition at 125 µg/mL: 125 μg/mL; for inhibition at 1000 µg/mL: 1000 μg/mL.
Procedure: Acetyl cholinesterase (AChE) and butyryl cholinesterase (BChE) were used to evaluate the enzyme inhibitory potential of Bergenia ciliata rhizome extracts and isolated compounds using Ellman’s assay [18]. The mentioned enzymes when act on their respective substrates acetylthiocholine iodide and butyrylthiocholine iodide hydrolyze them which then on complexation with 5-thio-2-nitrobenzoate anion formed from DTNB give yellow color. The color change is recorded after 15 min by spectrophotometer. Phosphate buffer (pH = 8) was prepared by mixing 1.36 g/100 mL, potassium dihydrogen phosphate and 1.74 g/100 mL di-potassium hydrogen phosphate (6 and 94% respectively). The AChE solution was prepared by dissolving 0.5 mg of enzyme in 0.5 ml of phosphate buffer to get 1000 unit/ml and BChE solution was also prepared by dissolving 1 mg in 1 ml of phosphate buffer to get 10 unit/ml. These two solutions were further diluted by phosphate buffer till a final concentration of 0.03 unit/ml and 0.1 unit/ml respectively. DTNB solution (0.0002 M) and ATChI and BTChI (0.0005 M) were prepared and kept in reagent bottles in refrigerator before use.
To each test tube, 100 μl of enzyme and DTNB solutions were added and incubated for 15 min at 25 °C. After this 100 μl substrates (AChEI, BChEI) were added to each test tube and allowed to stand for 15 min. The absorbance of mixtures were recorded at 412 nm. A negative control was prepared by mixing all the above mention components except plant extracts. […] For each sample absorption was recorded for 4 minutes. Percent activities of enzyme and percent inhibition were calculated using following relations. 2 V=∆Abs/∆T 3 %enzyme activity=V/Vmaxx100
Where V is the rate of reaction in the presence of inhibitor and Vmax is the rate of reaction without inhibitor.

Assay [4] concerns the target T2, acetyl cholinesterase from Electric eel (type-VI-S) (Electrophorus electricus, UniProt O42275).
T2 construct: purchased Sigma-Aldrich USA type-VI-S
Kind of assay: biochemical. The conditions noted are these: isolated compounds, Table 6; for inhibition at 125 µg/mL: 125 μg/mL; for inhibition at 125 µg/mL / inhibition at 250 µg/mL / inhibition at 500 µg/mL / inhibition at 1000 µg/mL: read-out: AChE percent inhibition (mean ± S.E.M); for inhibition at 250 µg/mL: 250 μg/mL; for inhibition at 500 µg/mL: 500 μg/mL; for inhibition at 1000 µg/mL: 1000 μg/mL; for IC50: read-out: AChE IC50 (converted).

The mark [5] stands for this setting: 62.5 μg/mL, isolated compounds, Table 5.
[6] abbreviates: 125 μg/mL, isolated compounds, Table 5.
[7] abbreviates: 250 μg/mL, isolated compounds, Table 5.
Setting [8] is: 500 μg/mL, isolated compounds, Table 5.
[9] abbreviates: 1000 μg/mL, isolated compounds, Table 5.
The mark [10] stands for this setting: isolated compounds, Table 6, read-out: BChE percent inhibition (mean ± S.E.M).
The mark [11] stands for this setting: 250 μg/mL, isolated compounds, Table 6, read-out: BChE percent inhibition (mean ± S.E.M).
Where [12] appears, read: 500 μg/mL, isolated compounds, Table 6, read-out: BChE percent inhibition (mean ± S.E.M).
Where [13] appears, read: isolated compounds, Table 6, read-out: BChE IC50 (converted).

Each structure is given as a SMILES string. Like-named read-outs stand apart in the source and are kept apart here.

T2 sequence (O42275 24-633): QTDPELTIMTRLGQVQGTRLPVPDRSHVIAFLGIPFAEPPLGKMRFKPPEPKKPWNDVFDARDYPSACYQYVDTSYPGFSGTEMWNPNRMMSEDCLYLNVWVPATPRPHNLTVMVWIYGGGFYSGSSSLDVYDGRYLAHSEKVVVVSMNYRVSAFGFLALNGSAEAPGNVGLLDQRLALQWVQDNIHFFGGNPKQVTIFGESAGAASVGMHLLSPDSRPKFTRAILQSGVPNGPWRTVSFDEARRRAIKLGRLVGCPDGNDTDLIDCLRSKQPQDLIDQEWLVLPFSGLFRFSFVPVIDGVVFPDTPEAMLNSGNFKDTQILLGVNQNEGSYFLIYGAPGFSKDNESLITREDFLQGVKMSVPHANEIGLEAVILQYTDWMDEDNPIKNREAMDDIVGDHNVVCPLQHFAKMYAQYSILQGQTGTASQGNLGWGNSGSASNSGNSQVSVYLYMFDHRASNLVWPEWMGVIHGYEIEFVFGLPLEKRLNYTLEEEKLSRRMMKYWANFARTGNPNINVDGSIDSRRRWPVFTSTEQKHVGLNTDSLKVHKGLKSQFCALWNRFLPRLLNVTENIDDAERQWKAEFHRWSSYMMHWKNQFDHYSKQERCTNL

For `O=C1O[C@H]([C@@H](O)CO)C(O)=C1O` [Ascorbic acid, reference compound], the “DPPH percent inhibition (mean ± S.E.M)” value is given as 52.88 ± 0.32% in assay [1] (62.5 μg/mL, extracts, Table 2); 53.78 ± 0.76% in assay [1] (setting [5]); 62.90 ± 0.48% in assay [1] (125 μg/mL, extracts, Table 2); 62.90 ± 0.85% in assay [1] (setting [6]); 71.93 ± 0.45% in assay [1] (250 μg/mL, extracts, Table 2); 71.34 ± 2.16% in assay [1] (setting [7]). Moreover, the “DPPH percent inhibition (mean ± S.E.M)” value in assay [1] (500 μg/mL, extracts, Table 2) is 80.29 ± 0.79%; in assay [1] (setting [8]), 80.45 ± 0.96%; in assay [1] (1000 μg/mL, extracts, Table 2), 92.94 ± 0.86%; in assay [1] (setting [9]), 92.67 ± 0.73%. Moreover, the “DPPH IC50” value was determined as 50 µg/mL in assay [1] (extracts, Table 2) and 50 µg/mL in assay [1] (isolated compounds, Table 5). The “ABTS percent inhibition (mean ± S.E.M)” value turned out to be 49.78 ± 0.76% in assay [2] (62.5 μg/mL, extracts, Table 2); 50.88 ± 0.32% in assay [2] (setting [5]); 58.90 ± 0.85% in assay [2] (125 μg/mL, extracts, Table 2); 58.90 ± 0.48% in assay [2] (setting [6]); 68.34 ± 2.16% in assay [2] (250 μg/mL, extracts, Table 2); 68.93 ± 0.45% in assay [2] (setting [7]). For the same molecule, the “ABTS percent inhibition (mean ± S.E.M)” value is on record as 80.45 ± 0.96% in assay [2] (500 μg/mL, extracts, Table 2); 80.29 ± 0.79% in assay [2] (setting [8]); 89.67 ± 0.73% in assay [2] (1000 μg/mL, extracts, Table 2); 89.94 ± 0.86% in assay [2] (setting [9]). In addition, the “ABTS IC50” value in assay [2] (extracts, Table 2) came out at 64 µg/mL; in assay [2] (isolated compounds, Table 5) it was 62 µg/mL.
Regarding `COc1ccc2c3c1O[C@H]1C[C@@H](O)C=C[C@@]31CCN(C)C2` [Galanthamine, reference compound], the inhibition at 125 µg/mL in assay [3] (setting [10]) worked out at 62.43 ± 0.39%. Moreover, the inhibition at 250 µg/mL was 71.8 ± 0.48% in assay [3] (setting [11]) and 76.72 ± 0.72% in assay [3] (250 μg/ml, extracts, Table 3, read-out: Percent BChE (mean ± SEM) inhibition). Also, the inhibition at 500 µg/mL in assay [3] (setting [12]) came to 86.51 ± 0.77%; in assay [3] (500 μg/ml, extracts, Table 3, read-out: Percent BChE (mean ± SEM) inhibition), 84.7 ± 1.2%. In assay [3] (setting [10]), the inhibition at 1000 µg/mL amounted to 92.26 ± 0.92%.
Regarding `O=c1c(O)c(-c2ccc(O)cc2O)oc2cc(O)cc(O)c12` [Morin, 2-(2,4-Dihydroxyphenyl)-3,5,7-trihydroxychromen-4-one], the “DPPH percent inhibition (mean ± S.E.M)” value in assay [1] (setting [5]) is 40.85 ± 0.94 %; in assay [1] (setting [6]), 48.72 ± 1.11 ^ns %; in assay [1] (setting [7]) it was 60.25 ± 2.28 %; in assay [1] (setting [8]), 72.72 ± 1.56 %; in assay [1] (setting [9]), 83.93 ± 0.72 %. Moreover, in assay [1] (isolated compounds, Table 5), the “DPPH IC50” value turned out to be 105 µg/mL. In addition, the “ABTS percent inhibition (mean ± S.E.M)” value is 30.50 ± 1.43 % in assay [2] (setting [5]); 44.15 ± 0.56 % in assay [2] (setting [6]); 58.04 ± 2.44 % in assay [2] (setting [7]); 70.67 ± 1.02 % in assay [2] (setting [8]); 80.86 ± 1.09 % in assay [2] (setting [9]). In assay [2] (isolated compounds, Table 5), the “ABTS IC50” value is 145 µg/mL. The inhibition at 125 µg/mL in assay [4] is 56.3 ± 1.45%; in assay [3] (setting [10]) it was 51.1 ± 0.56%. The values for the inhibition at 250 µg/mL in assay [4] and in assay [3] (setting [11]) were 68.8 ± 0.8% and 60.51 ± 0.5%, respectively. For the same molecule, the inhibition at 500 µg/mL is 77.2 ± 0.91% in assay [4] and 68.4 ± 2.22% in assay [3] (setting [12]). Moreover, the inhibition at 1000 µg/mL in assay [4] came to 85.5 ± 3.19%; in assay [3] (setting [10]), 80.46 ± 0.76%. The IC50 in assay [4] is 212 µM; in assay [3] (setting [13]), 384 µM.
As to `Oc1cccc(O)c1O` [Pyrogallol, Benzene-1,2,3-triol], the “DPPH percent inhibition (mean ± S.E.M)” value in assay [1] (setting [5]) is 48.72 ± 0.89 ^ns %; in assay [1] (setting [6]), 59.93 ± 2.18 ^ns %; in assay [1] (setting [7]), 70.30 ± 1.05 ^ns %; in assay [1] (setting [8]) it was 81.64 ± 1.33 ^ns %; in assay [1] (setting [9]) it was 89.35 ± 0.92 ^ns %. Moreover, the “DPPH IC50” value in assay [1] (isolated compounds, Table 5) was 68 µg/mL. Further, the “ABTS percent inhibition (mean ± S.E.M)” value in assay [2] (setting [5]) is 39.60 ± 1.39 %; in assay [2] (setting [6]) it was 53.26 ± 1.62 %; in assay [2] (setting [7]) it was 66.42 ± 0.90 ^ns %; in assay [2] (setting [8]) it was 77.81 ± 1.09 ^ns %; in assay [2] (setting [9]), 87.02 ± 0.81 ^ns %. Also, the “ABTS IC50” value in assay [2] (isolated compounds, Table 5) was found to be 85 µg/mL. In addition, the inhibition at 125 µg/mL in assay [4] was determined as 66.2 ± 2.14%; in assay [3] (setting [10]), 58.3 ± 0.93%. Moreover, the inhibition at 250 µg/mL in assay [4] was 80.12 ± 0.62%; in assay [3] (setting [11]) it was 71.2 ± 1.38%. For the same molecule, the inhibition at 500 µg/mL in assay [4] was found to be 87.4 ± 1.51%; in assay [3] (setting [12]) it was 80.35 ± 0.3%. In addition, the figures for the inhibition at 1000 µg/mL in assay [4] and in assay [3] (setting [10]) were 94.35 ± 0.72% and 92 ± 1.89%, respectively. Moreover, the half-inhibitory concentration (IC50) in assay [4] was 222 µM; in assay [3] (setting [13]), 555 µM.
For the molecule `C[C@@H]1O[C@@H](OC[C@H]2O[C@@H](Oc3c(-c4ccc(O)c(O)c4)oc4cc(O)cc(O)c4c3=O)[C@H](O)[C@@H](O)[C@@H]2O)[C@H](O)[C@H](O)[C@H]1O` [Rutin, 3,3,4,5,7-pentadroxyflavones-3-rutinoside], the “DPPH percent inhibition (mean ± S.E.M)” value in assay [1] (setting [5]) is 35.38 ± 2.28 %; in assay [1] (setting [6]) it was 46.63 ± 1.17 %; in assay [1] (setting [7]), 57.47 ± 0.93 %; in assay [1] (setting [8]), 68.43 ± 1.40 %; in assay [1] (setting [9]) it was 80.90 ± 1.27 %. In addition, the “DPPH IC50” value in assay [1] (isolated compounds, Table 5) came out at 150 µg/mL. The “ABTS percent inhibition (mean ± S.E.M)” value in assay [2] (setting [5]) was found to be 29.75 ± 2.18 %; in assay [2] (setting [6]) it was 44.30 ± 0.79 %; in assay [2] (setting [7]) it was 57.56 ± 1.42 %; in assay [2] (setting [8]), 69.05 ± 0.64 %; in assay [2] (setting [9]), 78.33 ± 0.63 %. In assay [2] (isolated compounds, Table 5), the “ABTS IC50” value stood at 183 µg/mL. Moreover, the figures for the inhibition at 125 µg/mL in assay [4] and in assay [3] (setting [10]) were 48.1 ± 0.64% and 45 ± 3.79%, respectively. The results for the inhibition at 250 µg/mL in assay [4] and in assay [3] (setting [11]) were 60.2 ± 2.35% and 56.7 ± 0.7%, respectively. Moreover, the values for the inhibition at 500 µg/mL in assay [4] and in assay [3] (setting [12]) were 66.72 ± 0.62% and 62.5 ± 1.72%, respectively. Further, the inhibition at 1000 µg/mL in assay [4] was found to be 75.1 ± 1.41%; in assay [3] (setting [10]) it was 72 ± 0.86%. The half-maximal inhibitory concentration (IC50) in assay [4] is 193 µM; in assay [3] (BChE IC50, isolated compounds, Table 6) it was 282 µM.

The values above are taken from PMC6833214, “Isolation of bioactive compounds from Bergenia ciliata (haw.) Sternb rhizome and their antioxidant and anticholinesterase activities” (BMC Complementary and Alternative Medicine, 2019).
